Data on 14 compounds can be found in patent publication US7807663B2, “Therapeutic agents for diabetes” (Ajinomoto Co., Inc., priority 2003, dated 2010).

SMILES strings stand for the structures. Converted amounts (≈) assume the structure as drawn.

One test deals with adipose cells of rats. Put plainly: Evaluation of the sugar transportation activity (2-[14C(U)]-deoxy-D-glucose incorporation). Conditions: concentration with reinforcing effect of 50% of that of insulin (100 nM) = 100%; rat adipose cells, 30 min pre-culture at 37° C., 5 min uptake. The format is cell-based, Wistar rats. In a few lines: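 Collagenase-isolated epididymal adipocytes from male Wistar rats in 2% BSA/KRH (pH 7.6) preincubated with compound 30 min at 37 °C, then pulsed with 2-[14C(U)]-deoxy-D-glucose (0.5 μCi/sample) 5 min; uptake stopped with 10 μM cytochalasin B, cells separated through dinonyl phthalate and counted by scintillation. EC50 (μg/mL) = concentration giving 50% of the 100 nM insulin effect.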

Another test deals with GK rats. Put plainly: Combinational effect with insulin secretagogue (gliclazide) using GK rats (Example 2). The class given is in vivo. The following applies: combined with gliclazide, compared with alone groups, same experiment as Example 1. The method, then: (§1) The compound (II) (100 mg/kg) was orally administered to C57BL/6NCrj mice (11 week age, male) and soon after that, gliclazide (3 mg/kg) was orally administered. After administration, the blood was taken from their caudal veins over time to determine the blood glucose level. Area under the curve of blood glucose level changes until 70 minutes after the administration was set as an index and variations from a control group (Vehicle administered group) were compared.
The same experiment is conducted as that of Example 1 except that the compounds of the Compound Nos. 6, 8, 62, 80, 81, 88, 91, […], 105, 106, 129, 130, 131 and 132 in Tables 1 and 2 are used instead of the compound (II), and GK rats are used instead of normal mice.

The test system of the next test is KK-Ay mice. Put plainly: Combinational effect with biguanide (metformin) using KK-Ay mice (Example 4). The format is in vivo. The following applies: combined with metformin, compared with alone groups, same experiment as Example 3. Here is the method: The compound (III) (30 mg/kg) was orally administered to C57BL/KsJ-db/bdJcl mice (10 week age, male) and soon after that, metformin (100 mg/kg) was orally administered. 60 minutes after administration, the blood was taken from their caudal veins to determine the blood glucose level.
The same experiment is conducted as that of Example 3 except that the compounds of the Compound Nos. 6, 8, 62, 80, 81, 88, 91, 96, 105, 106, 129, 130, 131 and 132 in Tables 1 and 2 are used instead of the compound (III), and KK-Ay mice are used instead of db/bd mice.

Test [1] concerns C57BL/KsJ-db/bdJcl mice. Put plainly: Combinational effect with glitazone (pioglitazone) using db/db mice, oral glucose load (Examples 5 and 6). The class given is in vivo. The following applies: single oral administration combined with pioglitazone 10 mg/kg/day oral for 10 days, compared with alone groups. The method, then:
The oral glucose load experiments are conducted using C57BL/KsJ-db/bdJcl mice in the conditions with or without the oral administeration of pioglitazone (10 mg/kg/day) for 10 days and with or without a single oral administration of the compound (III).
The same experiment is conducted as that of Example 5 except that the compounds of the Compound Nos. 6, 8, 62, 80, 81, 88, 91, 96, 105, 106, 129, 130, 131 and 132 in Tables 1 and 2 are used instead of the compound (III).

The subject of test [2] is C57BL/KsJ-db/bdJcl mice. Put plainly: Combinational effect with insulin using db/db mice (Examples 7 and 8). Conditions: combined with insulin 0.2 U/kg, compared with alone groups, same experiment as Example 3. The class given is in vivo. The method, then: The compound (III) (30 mg/kg) was orally administered to C57BL/KsJ-db/bdJcl mice (10 week age, male) and soon after that, metformin (100 mg/kg) was orally administered. 60 minutes after administration, the blood was taken from their caudal veins to determine the blood glucose level. The same experiment is conducted as that of Example 3 except that insulin (0.2 U/kg) is used instead of metformin. […] The same experiment is conducted as that of Example 7 except that the compounds of the Compound Nos. 6, 8, 62, 80, 81, 88, 91, 96, 105, 106, 129, 130, 131 and 132 in Tables 1 and 2 are used instead of the compound (III).

The next test concerns C57BL/6NCrj mice. The test can be described thus: Combinational effect with insulin secretagogue (gliclazide) using normal mice (Example 1). The class given is in vivo. Conditions: compound 100 mg/kg oral combined with gliclazide 3 mg/kg oral, compared with alone groups. The method, then: FIG. 1 is a chart showing a combinational effect of the compound (II) and gliclazide in Example 1 (average value±standard deviation, each group N=4).
The compound (II) of the Compound No. 96 in above Table 1, which is indicated by the following structural formula, was used for the investigation. The compound is that described as Example 129 in WO02/44180 and synthesized in accordance with the method described in the international publication.
as §1

Regarding `COc1ccccc1[C@@H]1C2=C(CNC2=O)N[C@@H]2CCCC[C@H]2N1C(=O)CC(F)(F)F` [Compound 6], in the test with adipose cells of rats, the “A: sugar transportation activity (EC50)” value came out at 0.47 µg/mL. Besides, the “hypoglycemic action (blood glucose level)” value in the test with GK rats, in the test with KK-Ay mice and with C57BL/KsJ-db/bdJcl mice [2] was “remarkable hypoglycemic action” each time. Further, the “hypoglycemic action (oral glucose load)” value in the test on C57BL/KsJ-db/bdJcl mice [1] is listed as “remarkable hypoglycemic action”.

As to `COc1ccccc1[C@@H]1C2=C(CNC2=O)N[C@@H]2CCCC[C@H]2N1C(=O)CO` [Compound 8], in the test on adipose cells of rats, the “A: sugar transportation activity (EC50)” value is 2 µg/mL. In addition, the “hypoglycemic action (blood glucose level)” value in the test on GK rats, with KK-Ay mice and in the test with C57BL/KsJ-db/bdJcl mice [2] was “remarkable hypoglycemic action” throughout. In addition, the “hypoglycemic action (oral glucose load)” value with C57BL/KsJ-db/bdJcl mice [1] is “remarkable hypoglycemic action”.

As to `O=C1NCC2=C1[C@@H](c1ccccc1OC1CC1)N(C(=O)CO)[C@@H]1CCCC[C@H]1N2` [Compound 62], in the test on adipose cells of rats, the “A: sugar transportation activity (EC50)” value was determined as 0.5 µg/mL. Besides, the “hypoglycemic action (blood glucose level)” value with GK rats, with KK-Ay mice and in the test on C57BL/KsJ-db/bdJcl mice [2] was “remarkable hypoglycemic action” throughout. Also, in the test on C57BL/KsJ-db/bdJcl mice [1], the “hypoglycemic action (oral glucose load)” value was “remarkable hypoglycemic action”.

Regarding `CSc1ccccc1[C@@H]1C2=C(CNC2=O)N[C@@H]2CCCC[C@H]2N1C(C)=O` [Compound 80], the “A: sugar transportation activity (EC50)” value in the test on adipose cells of rats was found to be 5 µg/mL. Moreover, the “hypoglycemic action (blood glucose level)” value in the test with GK rats, in the test on KK-Ay mice and with C57BL/KsJ-db/bdJcl mice [2] was “remarkable hypoglycemic action” each time. For the same compound, the “hypoglycemic action (oral glucose load)” value in the test on C57BL/KsJ-db/bdJcl mice [1] is on record as “remarkable hypoglycemic action”.

On to `CSc1ccccc1[C@@H]1C2=C(CNC2=O)N[C@@H]2CCCC[C@H]2N1C(=O)CO` [Compound 81], for which the “A: sugar transportation activity (EC50)” value with adipose cells of rats was determined as 2 µg/mL. Besides, the “hypoglycemic action (blood glucose level)” value in the test on GK rats, in the test with KK-Ay mice and in the test on C57BL/KsJ-db/bdJcl mice [2] was “remarkable hypoglycemic action” each time. Besides, the “hypoglycemic action (oral glucose load)” value in the test with C57BL/KsJ-db/bdJcl mice [1] is on record as “remarkable hypoglycemic action”.

With `CC(=O)N1[C@@H]2CCCC[C@H]2NC2=C(C(=O)NC2)[C@H]1c1ccccc1C` [Compound 88], the “A: sugar transportation activity (EC50)” value with adipose cells of rats came out at 5 µg/mL. In addition, the “hypoglycemic action (blood glucose level)” value in the test with GK rats, in the test with KK-Ay mice and in the test with C57BL/KsJ-db/bdJcl mice [2] was “remarkable hypoglycemic action” in each case. The “hypoglycemic action (oral glucose load)” value in the test with C57BL/KsJ-db/bdJcl mice [1] was “remarkable hypoglycemic action”.

For the compound `CCC(=O)N1[C@@H]2CCCC[C@H]2N(C)C2=C(C(=O)NC2)[C@H]1c1ccccc1C` [Compound 91], in the test on adipose cells of rats, the “A: sugar transportation activity (EC50)” value worked out at 0.45 µg/mL. Besides, the “hypoglycemic action (blood glucose level)” value in the test on GK rats, in the test with KK-Ay mice and in the test with C57BL/KsJ-db/bdJcl mice [2] was “remarkable hypoglycemic action” throughout. Besides, in the test on C57BL/KsJ-db/bdJcl mice [1], the “hypoglycemic action (oral glucose load)” value is listed as “remarkable hypoglycemic action”.

As usually defined, the EC50 is the concentration that produces a half-maximal response. As to `CCOCC(=O)N1[C@@H]2CCCC[C@H]2NC2=C(C(=O)NC2)[C@H]1c1ccccc1CC` [Compound 96], in the test with adipose cells of rats, the EC50 was 5.4 µg/mL (≈ 13.6 µM). Besides, in the test on C57BL/6NCrj mice, the “hypoglycemic action (area under the curve of blood glucose level changes until 70 minutes, variation from vehicle group)” value was “remarkable hypoglycemic action”. Besides, the “hypoglycemic action (blood glucose level)” value in the test with KK-Ay mice and in the test with C57BL/KsJ-db/bdJcl mice [2] was “remarkable hypoglycemic action” each time. Besides, the “hypoglycemic action (oral glucose load)” value in the test on C57BL/KsJ-db/bdJcl mice [1] is “remarkable hypoglycemic action”.

Consider `CC(=O)N1[C@@H]2CCCC[C@H]2NC2=C(C(=O)NC2)[C@H]1c1ccccc1C1CC1` [Compound 105], for which the “A: sugar transportation activity (EC50)” value with adipose cells of rats came out at 0.5 µg/mL. The “hypoglycemic action (blood glucose level)” value in the test with GK rats, in the test on KK-Ay mice and in the test on C57BL/KsJ-db/bdJcl mice [2] was “remarkable hypoglycemic action” in each case. The “hypoglycemic action (oral glucose load)” value with C57BL/KsJ-db/bdJcl mice [1] is given as “remarkable hypoglycemic action”.

Regarding `CCC(=O)N1[C@@H]2CCCC[C@H]2NC2=C(C(=O)NC2)[C@H]1c1cccc(F)c1C` [Compound 106], the “A: sugar transportation activity (EC50)” value in the test with adipose cells of rats was 0.6 µg/mL. For the same compound, the “hypoglycemic action (blood glucose level)” value in the test with GK rats, in the test with KK-Ay mice and with C57BL/KsJ-db/bdJcl mice [2] was “remarkable hypoglycemic action” in each case. Further, the “hypoglycemic action (oral glucose load)” value in the test on C57BL/KsJ-db/bdJcl mice [1] is “remarkable hypoglycemic action”.

As for `CC(=O)N1[C@@H]2CCCC[C@H]2NC2=C(C(=O)NC2)[C@H]1c1ccccc1` [Compound 129], the “hypoglycemic action (blood glucose level)” value with GK rats, with KK-Ay mice and in the test on C57BL/KsJ-db/bdJcl mice [2] was “remarkable hypoglycemic action” each time. The “hypoglycemic action (oral glucose load)” value in the test on C57BL/KsJ-db/bdJcl mice [1] is given as “remarkable hypoglycemic action”.

On to `CCC(=O)N1[C@@H]2CCCC[C@H]2NC2=C(C(=O)NC2)[C@H]1c1ccccc1` [Compound 130], for which the “A: sugar transportation activity (EC50)” value in the test on adipose cells of rats stood at 1.5 µg/mL. Besides, the “hypoglycemic action (blood glucose level)” value in the test on GK rats, in the test on KK-Ay mice and in the test on C57BL/KsJ-db/bdJcl mice [2] was “remarkable hypoglycemic action” throughout. The “hypoglycemic action (oral glucose load)” value in the test with C57BL/KsJ-db/bdJcl mice [1] is “remarkable hypoglycemic action”.

Turning to `O=C1NCC2=C1[C@@H](c1ccccc1)N(C(=O)CO)[C@@H]1CCCC[C@H]1N2` [Compound 131], the “A: sugar transportation activity (EC50)” value in the test with adipose cells of rats amounted to 1.5 µg/mL. For the same compound, the “hypoglycemic action (blood glucose level)” value with GK rats, in the test on KK-Ay mice and in the test on C57BL/KsJ-db/bdJcl mice [2] was “remarkable hypoglycemic action” throughout. The “hypoglycemic action (oral glucose load)” value with C57BL/KsJ-db/bdJcl mice [1] was “remarkable hypoglycemic action”.

As for `CCOCC(=O)N1[C@@H]2CCCC[C@H]2NC2=C(C(=O)NC2)[C@H]1c1ccccc1` [Compound 132], the “A: sugar transportation activity (EC50)” value in the test on adipose cells of rats was determined as 2.7 µg/mL. Besides, the “hypoglycemic action (blood glucose level)” value in the test with GK rats, in the test with KK-Ay mice and in the test with C57BL/KsJ-db/bdJcl mice [2] was “remarkable hypoglycemic action” in each case. Moreover, in the test on C57BL/KsJ-db/bdJcl mice [1], the “hypoglycemic action (oral glucose load)” value is recorded as “remarkable hypoglycemic action”.
